Data: patent publication US20130303535A1, “NOVEL BICYCLIC HETEROCYCLIC COMPOUND” (priority 2008, published 2013)
Counter-ions that a name gives are not always drawn.

Target: TTX resistant Na channel of human SNS-expressing cell (SNS) (Homo sapiens, UniProt Q9Y5Y9)
Experiment: cell-based
Details: CHO-K1, compound concentration 12.5 μM; read-out: SNS inhibitory rate (%)

Sequence of TTX resistant Na channel of human SNS-expressing cell (SNS) (Q9Y5Y9 whole entry, looked up): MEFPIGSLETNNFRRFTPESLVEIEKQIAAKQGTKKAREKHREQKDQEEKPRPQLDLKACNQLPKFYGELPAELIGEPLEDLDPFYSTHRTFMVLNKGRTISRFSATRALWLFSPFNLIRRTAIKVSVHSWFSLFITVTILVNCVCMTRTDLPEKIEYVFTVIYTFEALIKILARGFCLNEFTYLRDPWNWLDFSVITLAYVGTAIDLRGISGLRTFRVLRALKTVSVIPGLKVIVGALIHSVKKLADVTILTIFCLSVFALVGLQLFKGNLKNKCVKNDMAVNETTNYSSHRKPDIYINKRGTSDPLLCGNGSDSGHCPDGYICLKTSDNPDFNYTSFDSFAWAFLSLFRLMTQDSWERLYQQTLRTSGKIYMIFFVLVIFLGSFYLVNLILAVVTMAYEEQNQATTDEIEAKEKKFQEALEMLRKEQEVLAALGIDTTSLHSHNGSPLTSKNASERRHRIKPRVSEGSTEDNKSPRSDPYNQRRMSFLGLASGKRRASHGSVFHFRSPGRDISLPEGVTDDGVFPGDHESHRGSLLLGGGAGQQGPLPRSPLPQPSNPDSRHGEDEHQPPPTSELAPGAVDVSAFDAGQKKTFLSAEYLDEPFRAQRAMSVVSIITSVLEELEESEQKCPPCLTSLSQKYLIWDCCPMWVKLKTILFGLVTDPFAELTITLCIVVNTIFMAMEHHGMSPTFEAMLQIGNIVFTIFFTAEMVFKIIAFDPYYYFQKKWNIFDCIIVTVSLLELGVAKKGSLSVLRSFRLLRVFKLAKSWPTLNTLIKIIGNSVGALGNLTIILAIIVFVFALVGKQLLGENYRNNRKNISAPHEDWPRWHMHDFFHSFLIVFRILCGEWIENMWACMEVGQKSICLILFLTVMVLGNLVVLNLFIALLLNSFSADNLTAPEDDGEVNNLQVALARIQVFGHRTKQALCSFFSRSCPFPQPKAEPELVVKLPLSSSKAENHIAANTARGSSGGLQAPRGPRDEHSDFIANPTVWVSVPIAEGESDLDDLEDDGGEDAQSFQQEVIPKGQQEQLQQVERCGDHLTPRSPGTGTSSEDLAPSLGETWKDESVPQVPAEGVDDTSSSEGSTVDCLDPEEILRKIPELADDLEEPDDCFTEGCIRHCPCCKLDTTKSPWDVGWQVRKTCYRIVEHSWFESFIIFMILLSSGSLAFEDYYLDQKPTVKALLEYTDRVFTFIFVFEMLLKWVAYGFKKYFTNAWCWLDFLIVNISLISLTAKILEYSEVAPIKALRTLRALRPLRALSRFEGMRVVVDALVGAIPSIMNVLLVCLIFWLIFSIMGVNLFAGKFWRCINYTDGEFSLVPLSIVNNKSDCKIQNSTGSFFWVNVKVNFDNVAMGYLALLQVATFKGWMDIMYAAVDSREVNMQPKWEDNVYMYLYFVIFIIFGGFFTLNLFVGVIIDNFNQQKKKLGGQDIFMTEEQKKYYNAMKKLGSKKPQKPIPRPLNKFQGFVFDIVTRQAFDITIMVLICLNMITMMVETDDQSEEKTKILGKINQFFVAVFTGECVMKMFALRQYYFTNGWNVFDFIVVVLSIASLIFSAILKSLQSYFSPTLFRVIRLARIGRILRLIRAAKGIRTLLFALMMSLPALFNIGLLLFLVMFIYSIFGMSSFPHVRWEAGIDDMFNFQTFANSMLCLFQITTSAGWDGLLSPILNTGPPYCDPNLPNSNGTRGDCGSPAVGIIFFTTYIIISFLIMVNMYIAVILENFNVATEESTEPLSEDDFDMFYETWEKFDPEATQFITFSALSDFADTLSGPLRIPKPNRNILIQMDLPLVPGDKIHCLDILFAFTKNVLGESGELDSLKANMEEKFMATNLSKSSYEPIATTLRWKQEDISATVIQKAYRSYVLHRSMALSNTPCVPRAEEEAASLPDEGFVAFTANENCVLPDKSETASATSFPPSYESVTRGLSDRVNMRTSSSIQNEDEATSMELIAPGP

SMILES | inhibition at 12.5 µM
Cc1ccc(Oc2ccc3nc(CNC(C)(C)C(N)=O)n(C4CCOCC4)c3c2)cc1 [Example 140] | 97.5%
CCOCCn1c(CN[C@@H](CC)C(N)=O)nc2ccc(-c3ccc(F)cc3)cc21 [Example 150] | 45.6%
C[C@H](NCc1nc2ccc(Oc3ccc(F)cc3)cc2n1CC(C)(C)O)C(N)=O [Example 50] | 86.8%
NC(=O)[C@@H]1CCCN1Cc1nc2ccc(Oc3ccccc3)cc2n1C[C@H]1CCCO1 [Example 19] | 100%
C[C@H](NCc1nc2ccc(Oc3ccc(F)cc3)cc2n1C[C@H]1CCCO1)C(N)=O [Example 51] | 90.5%
CCn1c(CN[C@@H](C)C(N)=O)nc2ccc(Oc3ccc(F)cc3F)cc21 [Example 98] | 69.8%
CCOCCn1c(CN2CCC[C@H]2C(N)=O)nc2ccc(Oc3ccc(F)cc3)cc21 [Example 15] | 95.7%
CCOCCn1c(CN[C@@H](C)C(N)=O)nc2ccc(Oc3ccc4c(c3)CCC4)cc21 [Example 95] | 26.8%
Cc1ccc(Oc2ccc3nc(CN[C@@H](C)C(N)=O)n(C[C@H]4CCCO4)c3c2)cc1 [Example 131] | 55.9%
CCOCCn1c(CN[C@@H](C)C(N)=O)nc2cc(F)c(-c3ccc(F)cc3)cc21 [Example 109, N^2-{[1-(2-ethoxyethyl)-5-fluoro-6-(4-fluorophenyl)-1H-benzimidazol-2-yl]methyl}-L-alaninamide] | 89.3%
COCCCn1c(CNCC(N)=O)nc2ccc(Oc3ccccc3)cc21 [Example 23] | 0.8%
COCCCn1c(CN[C@@H](C)C(N)=O)nc2ccc(Oc3ccc(F)cc3F)cc21 [Example 123] | 96.8%
CCOCCn1c(CN[C@@H](C)C(N)=O)nc2cc(Cl)c(-c3ccc(F)cc3)cc21 [Example 92, N^2-{[5-chloro-1-(2-ethoxyethyl)-6-(4-fluorophenyl)-1H-benzimidazol-2-yl]methyl}-L-alaninamide] | 66.7%
CCOCCn1c(CN[C@H](C(N)=O)C(C)C)nc2ccc(Oc3ccccc3)cc21 [Example 38] | 48.8%
CCOCCn1c(CN[C@H](C(N)=O)C(C)C)nc2ccc(-c3ccc(F)cc3)cc21 [Example 151] | 26.6%
CCOCCn1c(CN[C@@H](CC)C(N)=O)nc2ccc(Oc3ccc(F)cc3)cc21 [Example 41] | 99.7%
CCOCCn1c(CN[C@@H](C)C(N)=O)nc2ccc(-c3ccc(OC(F)(F)F)cc3)cc21 [Example 145] | 1.3%
CCOCCn1c(CN[C@@H](C)C(=O)N2CCNC(C(F)(F)F)C2)nc2ccc(Oc3ccc(F)cc3)cc21 (stereo partly drawn) [Example 108] | 85.3%
CCOCCn1c(CNCC(N)=O)nc2ccc(Oc3ccccc3)nc21 [Example 80, N^2-{[3-(2-ethoxyethyl)-5-phenoxy-3H-imidazo[4,5-b]pyridin-2-yl]methyl}glycinamide] | 2.5%
CCOCCn1c(CN[C@@H](C)C(N)=O)nc2cc(Cl)c(-c3ccc(OC(F)(F)F)cc3)cc21 [Example 181] | 0%
CC(=O)N1CCC(n2c(CN[C@@H](C)C(N)=O)nc3ccc(Oc4ccc(F)cc4)cc32)CC1 [Example 85, N^2-{[1-(1-acetylpiperidin-4-yl)-6-(4-fluorophenoxy)-1H-benzimidazol-2-yl]methyl}-L-alaninamide] | 24.9%
CCOCCn1c(CNC(C)(C)C(N)=O)nc2ccc(Oc3cccc(Cl)c3)cc21 [Example 30] | 31.5%

SMILES | inhibition at 12.5 µM
CCOCCn1c(CN[C@@H](C)C(N)=O)nc2ccc(-c3ccc(F)cc3C)cc21 [Example 157] | 89.9%
CCOCCn1c(CN[C@@H](C)C(N)=O)nc2ccc(-c3ccccc3)cc21 [Example 69] | 22.3%
CCOCCn1c(CNC(C)(C)C(N)=O)nc2ccc(Oc3ccc(F)c(F)c3)cc21 [Example 141] | 90.3%
CCOCCn1c(CN[C@@H](C)C(N)=O)nc2ccc(-c3ccccc3C)cc21 [Example 153] | 28.5%
CCOCCn1c(CN[C@@H](C)C(N)=O)nc2ccc(-c3ccccc3Cl)cc21 [Example 71] | 73.7%
NC(=O)CNCc1nc2ccc(Oc3ccc(F)cc3)cc2n1C1CCC1 [Example 18] | 14.2%
CCOCCn1c(CN[C@@H](C)C(N)=O)nc2cc(-c3ccc(OC)cc3)ccc21 [Example 192, N^2-{[1-(2-ethoxyethyl)-5-(4-methoxyphenyl)-1H-benzimidazol-2-yl]methyl}-L-alaninamide trifluoroacetate] | 11.9%
C[C@H](NCc1nc2ccc(Oc3ccc(F)cc3)cc2n1C[C@@H]1CCCO1)C(N)=O [Example 56] | 82.2%
CCOCCn1c(CN[C@@H](C)C(N)=O)nc2ccc(-c3cccc(C)c3)cc21 [Example 152] | 8.9%
CCOCCn1c(CNC(C)(C)C(N)=O)nc2ccc(-c3ccc(C)c(F)c3)cc21 [Example 170] | 14.2%
COCCCn1c(CN[C@@H](C)C(N)=O)nc2ccc(Oc3ccc(C)cc3)cc21 [Example 126] | 56.9%
CCOCCn1c(CN[C@@H](C)C(N)=O)nc2cc(C)c(-c3ccc(F)c(F)c3)cc21 [Example 190] | 34.3%
CCOCCn1c(CN[C@@H](C)C(N)=O)nc2cc(Cl)c(-c3ccc(C(F)(F)F)cc3)cc21 [Example 182] | 0%
C[C@H](NCc1nc2ccc(Oc3ccc(F)cc3)cc2n1C1CCC1)C(N)=O [Example 17] | 89.3%
CCn1c(CN[C@@H](C)C(N)=O)nc2ccc(Oc3ccc(F)c(F)c3)cc21 [Example 97] | 82.4%
COCCn1c(CN[C@@H](C)C(N)=O)nc2ccc(Oc3ccc(F)cc3)cc21 [Example 60] | 75.7%
CCn1c(CN[C@@H](C)C(N)=O)nc2ccc(Oc3ccc(C)cc3)cc21 [Example 96] | 84.8%
CC(C)(NCc1nc2ccc(Oc3ccccc3)cc2n1C1CCC1)C(N)=O [Example 33] | 32.9%
C[C@H](NCc1nc2ccc(Oc3ccc(F)cc3)cc2n1C1CCNCC1)C(N)=O [Example 83, N^2-{[6-(4-fluorophenoxy)-1-(piperidin-4-yl)-1H-benzimidazol-2-yl]methyl}-L-alaninamide] | 0%
CCOCCn1c(CNC(C)(C)C(N)=O)nc2ccc(OCc3ccccc3)cc21 [Example 77, N^2-{[6-(benzyloxy)-1-(2-ethoxyethyl)-1H-benzimidazol-2-yl]methyl}-2-methylalaninamide] | 16%
C[C@H](NCc1nc2ccc(Oc3ccc(F)c(F)c3)cc2n1C[C@H]1CCCO1)C(N)=O [Example 124] | 87.8%
C[C@H](NCc1nc2ccc(Oc3ccccc3)cc2n1C[C@@H]1CCCO1)C(N)=O [Example 22] | 16.4%

SMILES | inhibition at 12.5 µM
CCOCCn1c(CN[C@@H](C)C(=O)N2CCNC(C#N)C2)nc2ccc(Oc3ccc(F)cc3)cc21 (stereo partly drawn) [Example 107] | 83.7%
C[C@H](NCc1nc2ccc(Oc3ccc(OC(F)(F)F)cc3)cc2n1CCCO)C(N)=O [Example 133] | 91.7%
CCOCCn1c(CN[C@@H](C)C(N)=O)nc2cc(Cl)c(-c3ccc(F)cc3F)cc21 [Example 179] | 67.4%
C[C@H](NCc1nc2ccc(Oc3ccc(F)cc3F)cc2n1C[C@H]1CCCO1)C(N)=O [Example 125] | 95.9%
C[C@H](NCc1nc2ccc(Oc3ccc(OC(F)(F)F)cc3)cc2n1CCO)C(N)=O [Example 134] | 95.7%
CCn1c(CN[C@@H](C)C(N)=O)nc2cc(F)c(-c3ccc(F)cc3)cc21 [Example 111, N^2-{[1-ethyl-5-fluoro-6-(4-fluorophenyl)-1H-benzimidazol-2-yl]methyl}-L-alaninamide] | 88.4%
CCOCCn1c(CNC(C)(C)C(N)=O)nc2ccc(-c3ccc(C)cc3F)cc21 [Example 166] | 62.7%
CCOCCn1c(CN[C@@H](C)C(N)=O)nc2cc(F)c(-c3ccc(C)c(F)c3)cc21 [Example 189] | 97.7%
CCOCCn1c(CN[C@@H](C)C(N)=O)nc2cc(F)c(-c3ccc(F)c(C)c3)cc21 [Example 188] | 87%
C[C@H](NCc1nc2ccc(Oc3ccc(OC(F)(F)F)cc3)cc2n1C1CCOCC1)C(N)=O [Example 130] | 42.1%
CCOCCn1c(CNC(C)(C)C(N)=O)nc2ccc(-c3ccc(F)c(C)c3)cc21 [Example 168] | 20.2%
CCOCCn1c(CN[C@@H](C)C(N)=O)nc2ccc(-c3ccc(F)cc3OC)cc21 [Example 172] | 50.9%
Cc1ccc(Oc2ccc3nc(CN[C@@H](C)C(N)=O)n(C[C@@H]4CCCO4)c3c2)cc1 [Example 119] | 87.2%
C[C@H](NCc1nc2ccc(Oc3ccc(F)cc3)cc2n1C1CCN(C(=O)OC(C)(C)C)CC1)C(N)=O [Example 82, tert-butyl 4-[2-({[(2S)-1-amino-1-oxopropan-2-yl]amino}methyl)-6-(4-fluorophenoxy)-1H-benzimidazol-1-yl]piperidine-1-carboxylate] | 30.7%
C[C@@H](NCc1nc2ccc(Oc3ccccc3)cc2n1C1CCC1)C(N)=O [Example 34] | 6.7%
CCOCCn1c(CN[C@@H](C)C(N)=O)nc2ccc(Oc3ccc(C)cc3)cc21 [Example 42] | 76.7%
CCn1c(CNC(C)(C)C(N)=O)nc2ccc(Oc3ccc(F)cc3)cc21 [Example 138] | 93.1%
CCn1c(CNC(C)(C)C(N)=O)nc2cc(F)c(-c3ccc(F)cc3)cc21 [Example 187] | 53.3%
CCOCCn1c(CNC(C)(C)C(N)=O)nc2ccc(-c3ccc(C)c(C)c3)cc21 [Example 162] | 67.3%
CCOCCn1c(CN[C@@H](C)C(=O)N2CCOCC2)nc2ccc(Oc3ccc(F)cc3)cc21 [Example 90] | 96.1%
CCOCCn1c(CN[C@@H](C)C(N)=O)nc2ccc(-c3c(C)cc(C)cc3C)cc21 [Example 164] | 3.7%

Same assay, conditions: compound concentration 12.5 μM

SMILES | SNS inhibitory rate (%)
CCOCCn1c(CN[C@@H](C)C(N)=O)nc2cc(Cl)c(-c3ccc(F)cc3)cc21 [Example 176] | 68.8%
